{
  "source": "patent US20090105217A1",
  "about": "“2-PHENYL-5-AMINO-1,3,4-OXADIAZOLES AND THEIR USE AS NICOTINIC ACETYLCHOLINE RECEPTOR LIGANDS” (priority 2007, published 2009)",
  "note": "Where a name gives a salt, the structure may show the parent alone.",
  "data": [
    {"molecular_target": "T1, human α7 nAChR (Homo sapiens, UniProt P36544)", "T1 construct": "host or cells: GH4C1 cells (pituitary tumor, immortalized cell line)", "T1 sequence (P36544 23-502)": "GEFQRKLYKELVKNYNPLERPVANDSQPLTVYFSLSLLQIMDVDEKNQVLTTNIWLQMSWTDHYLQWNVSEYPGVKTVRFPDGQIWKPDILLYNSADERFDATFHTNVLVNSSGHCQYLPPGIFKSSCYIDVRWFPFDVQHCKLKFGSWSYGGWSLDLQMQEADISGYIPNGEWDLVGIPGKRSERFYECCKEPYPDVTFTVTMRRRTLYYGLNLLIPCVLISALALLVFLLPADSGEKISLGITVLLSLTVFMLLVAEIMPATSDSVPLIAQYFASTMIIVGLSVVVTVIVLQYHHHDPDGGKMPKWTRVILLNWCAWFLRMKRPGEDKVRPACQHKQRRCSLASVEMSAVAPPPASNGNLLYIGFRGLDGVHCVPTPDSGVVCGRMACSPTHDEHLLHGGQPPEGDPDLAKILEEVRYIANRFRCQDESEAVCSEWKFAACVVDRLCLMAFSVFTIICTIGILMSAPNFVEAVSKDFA", "assay": "α7 nAChR FLIPR (Fluorometric Imaging Plate Reader) Ca2+ assay, agonist EC50", "format": "cell-based", "settings": "GH4C1 cells stably transfected with human α7 nAChR; Fluo-4 Ca2+ fluorescence; Examples 194 to 205 tested as the HCl salt; read-out: pEC50 value (negative logarithm of the agonist EC50) (converted)", "method": "α7 nAChR FLIPR® (Fluorometric Imaging Plate Reader) Assay\nFunction of the heterologous expressed α7 nAChR was assessed by a FLIPR-Ca^2+ assay. Since nAChRs are non-selective cation channels with high permeability to Ca^2+, these studies were carried out by measuring changes of intracellular Ca^2+ concentration using the Ca^2+-chelating fluorescent dye Fluo-4 and FLIPR® (Fluorometric Imaging Plate Reader) technology.\nGH4C1cells (pituitary tumor, immortalized cell line) stably transfected with human α7 nAChR (Biocat ID 96986), were thawed, suspended in growth medium (Ham's Nutrient Mixture F10—Ham's F10, Invitrogen 31550-023, 15% Horse Serum heat inactivated—Invitrogen 26050-047, 2.5% Foetal Bovine Serum—FBS, Gibco 10500-064, 200 μg/ml Hygromycin B—Invitrogen, 10687-010, 10 mg/L Phenol Red—Sigma, P 0290, 1 mM Glutamine—Invitrogen, 25030-024) and plated in 500 cm^2 Triple Flask.\nCells were then incubated at 30° C., 5% CO2 for 72 hours.\nOn the day of the experiment, cells were washed twice with Assay Buffer (AB) (145 mM NaCl, 5 mM KCl, 1 mM MgCl2, 2 mM CaCl2, 20 mM HEPES, 5.5 mM Glucose pH=7.3) containing 2.5 mM Probenecid. Changes in the intracellular Ca^2+ content of stably transfected cells were measured using the Ca^2+ chelating dye Fluo-4 (Tef Labs 0152) in conjunction with a FLIPR® (Molecular Devices). The cell permeant dye Fluo-4 was prepared to a concentration of 1 mM in 100% DMSO and 10% Pluronic acid. The dye was then diluted with AB to a final concentration of 2 μM and placed on the cells. After 45-60 minutes dye loading incubation at 37° C., the unincorporated dye was removed from the cells by washing (80 μL, 3 times) with AB, and a final volume of 30 μL/well of AB was left in each well.\nPlates containing test compounds (dissolved in 100% DMSO at 2 mM and serially diluted with DMSO) were copied into “daughter” plates (1 μL/well dispensation). Just prior to starting the assay, the “daughter” plate was diluted with 50 μL/well of AB.\nThe plates were then placed in the FLIPR®, and cell fluorescence was determined before drug addition (30 seconds) and monitored (excitation 488 nm, emission 510-580 nm) immediately following exposure to compounds. Maximum fluorescence values were recorded and fitted for agonist EC50 calculations.\nThe results are expressed as pEC50 values. A pEC50 is the negative logarithm of the agonist EC50 calculation as determined in the α7 nAChR FLIPR® assay. […] Variations in pEC50 may arise between tests.", "units": {"EC50": "µM"}, "values": [
      {"smiles": "O=C(Nc1ccc(-c2nnc(NCCCN3CCCCC3)o2)cc1)c1cccc(F)c1F", "note": "[Example 16, 2,3-Difluoro-N-[4-(5-{[3-(1-piperidinyl)propyl]amino}-1,3,4-oxadiazol-2-yl)phenyl]benzamidehydrochloride]", "EC50": "≤ 1"},
      {"smiles": "O=C(Nc1ccc(-c2nnc(NCCCCN3CCCCC3)o2)c(F)c1)c1ccccc1", "note": "[Example 114, N-[3-fluoro-4-(5-{[4-(1-piperidinyl)butyl]amino}-1,3,4-oxadiazol-2-yl)phenyl]benzamide]", "EC50": "≤ 0.1"},
      {"smiles": "O=C(Nc1ccc(-c2nnc(NCCCCN3CCCCC3)o2)c(F)c1)C1CCCCC1", "note": "[Example 54, N-[3-fluoro-4-(5-{[4-(1-piperidinyl)butyl]amino}-1,3,4-oxadiazol-2-yl)phenyl]cyclohexanecarboxamide]", "EC50": "≤ 0.1"},
      {"smiles": "O=C(Nc1ccc(-c2nnc(NCCCN3CCOCC3)o2)cc1)c1c(F)cccc1F", "note": "[Example 194, 2,6-Difluoro-N-[4-(5-{[3-(4-morpholinyl)propyl]amino}-1,3,4-oxadiazol-2-yl)phenyl]benzamide]", "EC50": "≤ 1"},
      {"smiles": "O=C(Nc1ccc(-c2nnc(NCCCN3CCCC3)o2)c(Cl)c1)C1CCCCC1", "note": "[Example 157, N-[3-chloro-4-(5-{[3-(1-pyrrolidinyl)propyl]amino}-1,3,4-oxadiazol-2-yl)phenyl]cyclohexanecarboxamide]", "EC50": "≤ 1"},
      {"smiles": "CCN(CC)CCCNc1nnc(-c2ccc(NC(=O)C3CCCCC3)cc2)o1", "note": "[Example 149, N-[4-(5-{[3-(diethylamino)propyl]amino}-1,3,4-oxadiazol-2-yl)phenyl]cyclohexanecarboxamide]", "EC50": "≤ 1"},
      {"smiles": "O=C(Nc1ccc(-c2nnc(NCCCCN3CCOCC3)o2)c(F)c1)C1CCCCC1", "note": "[Example 58, N-[3-fluoro-4-(5-{[4-(4-morpholinyl)butyl]amino}-1,3,4-oxadiazol-2-yl)phenyl]cyclohexanecarboxamide]", "EC50": "≤ 1"},
      {"smiles": "CCN(CC)CCCNc1nnc(-c2ccc(NC(=O)c3cccc(F)c3)cc2)o1", "note": "[Example 209, N-[4-(5-{[3-(diethylamino)propyl]amino}-1,3,4-oxadiazol-2-yl)phenyl]-3-fluorobenzamidetrifluoroacetate]", "EC50": "≤ 1"},
      {"smiles": "COc1cc(NC(=O)c2cccc(F)c2)ccc1-c1nnc(NCCCN2CCOCC2)o1", "note": "[Example 204, 3-Fluoro-N-[3-(methyloxy)-4-(5-{[3-(4-morpholinyl)propyl]amino}-1,3,4-oxadiazol-2-yl)phenyl]benzamide]", "EC50": "≤ 1"},
      {"smiles": "O=C(Nc1ccc(-c2nnc(NCCCCN3CCCC3)o2)c(C(F)(F)F)c1)c1ccccc1", "note": "[Example 92, N-[4-(5-{[4-(1-pyrrolidinyl)butyl]amino}-1,3,4-oxadiazol-2-yl)-3-(trifluoromethyl)phenyl]benzamide]", "EC50": "≤ 0.1"},
      {"smiles": "O=C(Nc1ccc(-c2nnc(NCCCN3CCN4CCC3CC4)o2)cc1)c1ccccc1", "note": "[Example 123, N-[4-(5-{[3-(1,4-diazabicyclo[3.2.2]non-4-yl)propyl]amino}-1,3,4-oxadiazol-2-yl)phenyl]benzamide]", "EC50": "≤ 0.1"},
      {"smiles": "O=C(Nc1ccc(-c2nnc(NCCCCN3CCCC3)o2)c(Cl)c1)c1ccccc1", "note": "[Example 100, N-[3-chloro-4-(5-{[4-(1-pyrrolidinyl)butyl]amino}-1,3,4-oxadiazol-2-yl)phenyl]benzamide]", "EC50": "≤ 0.1"},
      {"smiles": "CCOc1cc(NC(=O)C2CCCCC2)ccc1-c1nnc(NCCCN2CCCCC2)o1", "note": "[Example 189, N-[3-(ethyloxy)-4-(5-{[3-(1-piperidinyl)propyl]amino}-1,3,4-oxadiazol-2-yl)phenyl]cyclohexane-carboxamide]", "EC50": "≤ 1"},
      {"smiles": "COc1cc(NC(=O)C2CCCCC2)ccc1-c1nnc(NCCCN2CCOCC2)o1", "note": "[Example 79, N-[3-(methyloxy)-4-(5-{[3-(4-morpholinyl)propyl]amino}-1,3,4-oxadiazol-2-yl)phenyl]cyclohexanecarboxamide]", "EC50": "≤ 1"},
      {"smiles": "O=C(Nc1ccc(-c2nnc(NCCCCN3CCCCC3)o2)c(C(F)(F)F)c1)c1ccccc1", "note": "[Example 98, N-[4-(5-{[4-(1-piperidinyl)butyl]amino}-1,3,4-oxadiazol-2-yl)-3-(trifluoromethyl)phenyl]benzamide]", "EC50": "≤ 0.1"},
      {"smiles": "CCN(CC)CCCCNc1nnc(-c2ccc(NC(=O)C3CCCCC3)cc2F)o1", "note": "[Example 60, N-[4-(5-{[4-(diethylamino)butyl]amino}-1,3,4-oxadiazol-2-yl)-3-fluorophenyl]cyclohexanecarboxamide]", "EC50": "≤ 1"},
      {"smiles": "CCN(CC)CCCNc1nnc(-c2ccc(NC(=O)C3CCCCC3)cc2C(F)(F)F)o1", "note": "[Example 67, N-[4-(5-{[3-(diethylamino)propyl]amino}-1,3,4-oxadiazol-2-yl)-3-(trifluoromethyl)phenyl]cyclohexanecarboxamide]", "EC50": "≤ 1"},
      {"smiles": "COc1cc(NC(=O)C2CCCCC2)ccc1-c1nnc(NCCCCN2CCCC2)o1", "note": "[Example 78, N-[3-(methyloxy)-4-(5-{[4-(1-pyrrolidinyl)butyl]amino}-1,3,4-oxadiazol-2-yl)phenyl]cyclohexanecarboxamide]", "EC50": "≤ 0.1"},
      {"smiles": "O=C(Nc1ccc(-c2nnc(NCCCN3CCCCC3)o2)c(F)c1)C1CCCCC1", "note": "[Example 53, N-[3-fluoro-4-(5-{[3-(1-piperidinyl)propyl]amino}-1,3,4-oxadiazol-2-yl)phenyl]cyclohexanecarboxamide]", "EC50": "≤ 1"},
      {"smiles": "O=C(Nc1ccc(-c2nnc(NCCCN3CCCCC3)o2)cc1)c1cccc(Cl)c1", "note": "[Example 12, 3-Chloro-N-[4-(5-{[3-(1-piperidinyl)propyl]amino}-1,3,4-oxadiazol-2-yl)phenyl]benzamidehydrochloride]", "EC50": "≤ 1"},
      {"smiles": "CCN(CC)CCCNc1nnc(-c2ccc(NC(=O)c3ccccc3)cc2Cl)o1", "note": "[Example 103, N-[3-chloro-4-(5-{[3-(diethylamino)propyl]amino}-1,3,4-oxadiazol-2-yl)phenyl]benzamide]", "EC50": "≤ 1"},
      {"smiles": "CCN(CC)CCCNc1nnc(-c2ccc(NC(=O)c3ccc(OC)cc3)cc2OC)o1", "note": "[Example 225, N-[4-(5-{[3-(diethylamino)propyl]amino}-1,3,4-oxadiazol-2-yl)-3-(methyloxy)phenyl]-4-(methyloxy)benzamidetrifluoroacetate]", "EC50": "≤ 1"},
      {"smiles": "O=C(Nc1ccc(-c2nnc(NCCCN3CCCCC3)o2)cc1)c1ccco1", "note": "[Example 185, N-[4-(5-{[3-(1-piperidinyl)propyl]amino}-1,3,4-oxadiazol-2-yl)phenyl]-2-furancarboxamide]", "EC50": "≤ 1"},
      {"smiles": "CCN(CC)CCCNc1nnc(-c2ccc(NC(=O)c3ccccc3F)cc2Cl)o1", "note": "[Example 155, N-[3-chloro-4-(5-{[3-(diethylamino)propyl]amino}-1,3,4-oxadiazol-2-yl)phenyl]-2-fluorobenzamide]", "EC50": "≤ 1"},
      {"smiles": "O=C(Nc1ccc(-c2nnc(NCCCCN3CCCCC3)o2)c(Cl)c1)c1ccccc1", "note": "[Example 106, N-[3-chloro-4-(5-{[4-(1-piperidinyl)butyl]amino}-1,3,4-oxadiazol-2-yl)phenyl]benzamide]", "EC50": "≤ 0.1"},
      {"smiles": "CCOc1cc(NC(=O)c2ccccc2)ccc1-c1nnc(NCCCN2CCCCC2)o1", "note": "[Example 190, N-[3-(ethyloxy)-4-(5-{[3-(1-piperidinyl)propyl]amino}-1,3,4-oxadiazol-2-yl)phenyl]benzamide]", "EC50": "≤ 0.1"},
      {"smiles": "CC1(C)CCN(CCCNc2nnc(-c3ccc(NC(=O)c4ccccc4F)cc3)o2)CC1", "note": "[Example 135, N-[4-(5-{[3-(4,4-dimethyl-1-piperidinyl)propyl]amino}-1,3,4-oxadiazol-2-yl)phenyl]-2-fluorobenzamide]", "EC50": "≤ 1"},
      {"smiles": "CCN(CC)CCCNc1nnc(-c2ccc(NC(=O)c3ccc(F)cc3)cc2OC)o1", "note": "[Example 202, N-[4-(5-{[3-(Diethylamino)propyl]amino}-1,3,4-oxadiazol-2-yl)-3-(methyloxy)phenyl]-4-fluorobenzamide]", "EC50": "≤ 1"},
      {"smiles": "CCc1cc(NC(=O)c2ccccc2F)ccc1-c1nnc(NCCCCN2CCOCC2)o1", "note": "[Example 172, N-[3-ethyl-4-(5-{[4-(4-morpholinyl)butyl]amino}-1,3,4-oxadiazol-2-yl)phenyl]-2-fluorobenzamide]", "EC50": "≤ 0.1"},
      {"smiles": "O=C(Nc1ccc(-c2nnc(NCCCN3CCOCC3)o2)cc1)c1ccccc1", "note": "[Example 117, N-[4-(5-{[3-(4-morpholinyl)propyl]amino}-1,3,4-oxadiazol-2-yl)phenyl]benzamide]", "EC50": "≤ 1"}
    ]}
  ]
}
